According to patent US20250129080A1, “COMPOSITIONS AND METHODS OF USING THE SAME FOR TREATMENT OF NEURODEGENERATIVE AND MITOCHONDRIAL DISEASE” (Mitokinin, Inc., priority 2021, published 2025):

Columns and labels:
[1] = tested on: HeLa cells expressing mt-Keima and YFP-Parkin (HeLa MKYP); assay: Human mt-Keima mitophagy assay; assay type: cell-based; details: 16 hrs with compound, then FCCP/oligomycin for 6 hours, FACS
Procedure: Briefly, HeLa cells expressing mt-Keima and YFP-Parkin (HeLa MKYP) were plated at 10,000 cells/well in 96 well plates along with compounds at various concentrations. Following 16 hrs of incubation, cells were treated with […] FCCP/oligomycin for 6 hours, then analyzed via FACS for the presence of mitochondria in lysosomes (as determined by an emissions spectrum shift from the pH-sensitive mt-Keima tag).

SKOV3 cells = assay: In vitro mitosafety (glucose/galactose) assay; assay type: cell-based; details: highest mito-safe dose (gal/glc >0.80, IC20, SKOV3 cells, 20 hours) divided by mt-Keima EC50
Procedure: Briefly, SKOV3 cells (ATCC HTB-77) were plated in DMEM (Corning 10-013-CV) medium containing 25 mM glucose or DMEM with no glucose (Gibco 11966-025) supplemented with 10 mMV galactose at 9,000 cells/well in 96 well plates (Corning costar 3610). 24 hrs later, compounds, in DMSO, were added at various concentrations to a final 0.1% DMSO for all wells. […] After a 15 minute incubation cellular ATP levels were read out using a Promega GloMax® DiscoverMicroplate Reader.
The ratio of relative CellTiter-Glo values from cells grown in galactose to cells grown in glucose was determined (gal/glc ratio). The gal/glc ratio vs concentration is then graphed, and non-linear regression is used to find the highest concentration of MTK compound at which gal/glc >0.80 (the “highest mito-safe dose”, or IC20).

Row | EC50 ([1]; Homo sapiens, HeLa) [nM] | SMILES | Mito-Safety Index (highest safe dose/EC50) (SKOV3 cells) | EC50 [1] [nM]
1 | 215 | OC1([C@H]2COc3ccccc3[C@@H]2Nc2ncnc3[nH]c(C4CC4)cc23)CCOCC1 [EP-0042202, 4-[(3R,4R)-4-[(6-Cyclopropyl-7H-Pyrrolo[2,3-D]Pyrimidin-4-Yl)Amino]Chroman-3-Yl]Tetrahydropyran-4-Ol] | 116.5 | –
2 | 448 | CO[C@H]1CCCN([C@H]2COc3ccccc3[C@@H]2Nc2ncnc3[nH]c(C(F)(F)F)cc23)C1 [EP-0043439, N-((3R,4S)-3-((S)-3-Methoxypiperidin-1-Yl)Chroman-4-Yl)-6-(Trifluoromethyl)-7H-Pyrrolo[2,3-D]Pyrimidin-4-Amine] | 48.93 | –
3 | 70 | C[C@@H]1CN([C@H]2COc3cccc(F)c3[C@@H]2Nc2ncnc3[nH]c(C(F)(F)F)cc23)CCO1 [EP-0043859, N-((3R,4S)-5-fluoro-3-((R)-2-methylmorpholino)chroman-4-yl)-6-(trifluoromethyl)-7H-pyrrolo[2,3-d]pyrimidin-4-amine] | 31.4 | –
4 | 600 | FC(F)C1CN([C@H]2COc3ccccc3[C@@H]2Nc2ncnc3[nH]c(C(F)(F)F)cc23)C1 [EP-0043831, N-((3R,4S)-3-(3-(difluoromethyl)azetidin-1-yl)chroman-4-yl)-6-(trifluoromethyl)-7H-pyrrolo[2,3-d]pyrimidin-4-amine] | 41.7 | –
5 | – | c1ccc2c(c1)OC[C@H](N1CCC3(CCCO3)C1)[C@H]2Nc1ncnc2[nH]c(C3CC3)cc12 (single isomer, unassigned) [EP-0042934] | 55.78 | 35
6 | 40 | FC(F)C1CCN([C@H]2COc3ccccc3[C@@H]2Nc2ncnc3[nH]c(C(F)(F)F)cc23)C1 (stereo partly drawn) [EP-0043845, N-((3R,4S)-3-(3-(Difluoromethyl)Pyrrolidin-1-Yl)Chroman-4-Yl)-6-(Trifluoromethyl)-7H-Pyrrolo[2,3-D]Pyrimidin-4-Amine] | 95.0 | –
7 | 97 | N#C[C@H]1CCN([C@H]2COc3ccccc3[C@@H]2Nc2ncnc3[nH]c(C(F)(F)F)cc23)C1 [EP-0043263, (S)-1-((3R,4S)-4-((6-(Trifluoromethyl)-7H-Pyrrolo[2,3-D]Pyrimidin-4-Yl)Amino)Chroman-3-Yl)Pyrrolidine-3-Carbonitrile] | 120.52 | –
8 | 346 | FC(F)OC1CN([C@H]2COc3ccccc3[C@@H]2Nc2ncnc3[nH]c(C4CC4)cc23)C1 (relative stereo) [EP-0041832, 6-Cyclopropyl-N-[Trans-3-[3-(Difluoromethoxy)Azetidin-1-Yl]Chroman-4-Yl]-7H-Pyrrolo[2,3-D]Pyrimidin-4-Amine] | 72.23 | –
9 | 139 | FC1(F)CCN([C@H]2COc3ccccc3[C@@H]2Nc2ncnc3[nH]c(C4CC4)cc23)C1 [EP-0042660, 6-Cyclopropyl-N-((3R,4S)-3-(3,3-Difluoropyrrolidin-1-Yl)Chroman-4-Yl)-7H-Pyrrolo[2,3-D]Pyrimidin-4-Amine] | 179.63 | –
10 | 170 | C[C@@H]1CN([C@H]2COc3ccc(F)cc3[C@@H]2Nc2ncnc3[nH]c(C(F)(F)F)cc23)CCO1 [EP-0043863, N-((3R,4S)-6-fluoro-3-((R)-2-methylmorpholino)chroman-4-yl)-6-(trifluoromethyl)-7H-pyrrolo[2,3-d]pyrimidin-4-amine] | 40.0 | –
11 | 218 | OC1([C@H]2COc3ccccc3[C@@H]2Nc2ncnc3[nH]c(C(F)(F)F)cc23)CCOCC1 [EP-0042356, 4-[(3R,4R)-4-[[6-(Trifluoromethyl)-7H-Pyrrolo[2,3-D]Pyrimidin-4-Yl]Amino]Chroman-3-Yl]Tetrahydropyran-4-Ol] | 114.63 | –
12 | 110 | CC1(C#N)CCN([C@H]2COc3ccccc3[C@@H]2Nc2ncnc3[nH]c(C(F)(F)F)cc23)C1 (single isomer, unassigned) [EP-0043816] | 75.4 | –
13 | 387 | F[C@H]1CCN([C@H]2COc3ccccc3[C@@H]2Nc2ncnc3[nH]c(C(F)(F)F)cc23)C1 [EP-0042972, N-((3R,4S)-3-((S)-3-Fluoropyrrolidin-1-Yl)Chroman-4-Yl)-6-(Trifluoromethyl)-7H-Pyrrolo[2,3-D]Pyrimidin-4-Amine] | 62.14 | –
14 | 120 | F[C@H]1CCN([C@H]2COc3ccccc3[C@@H]2Nc2nccc3[nH]c(C(F)(F)F)cc23)C1 [EP-0043870, N-((3R,4S)-3-((S)-3-fluoropyrrolidin-1-yl)chroman-4-yl)-2-(trifluoromethyl)-1H-pyrrolo[3,2-c]pyridin-4-amine] | 67.5 | –
15 | 50 | C[C@@H]1CN([C@H]2COc3cc(F)ccc3[C@@H]2Nc2nccc3[nH]c(C(F)(F)F)cc23)CCO1 [EP-0043830, N-((3R,4S)-7-fluoro-3-((R)-2-methylmorpholino)chroman-4-yl)-2-(trifluoromethyl)-1H-pyrrolo[3,2-c]pyridin-4-amine] | 118.0 | –
16 | 129 | N#C[C@@H]1CCN([C@H]2COc3ccccc3[C@@H]2Nc2ncnc3[nH]c(C(F)(F)F)cc23)C1 [EP-0043264, (R)-1-((3R,4S)-4-((6-(Trifluoromethyl)-7H-Pyrrolo[2,3-D]Pyrimidin-4-Yl)Amino)Chroman-3-Yl)Pyrrolidine-3-Carbonitrile] | 91.68 | –
17 | 10 | C[C@@H]1CN([C@H]2COc3cc(F)ccc3[C@@H]2Nc2ncnc3[nH]c(C4CCC4)cc23)CCO1 [EP-0044008, 6-cyclobutyl-N-((3R,4S)-7-fluoro-3-((R)-2-methylmorpholino)chroman-4-yl)-7H-pyrrolo[2,3-d]pyrimidin-4-amine] | 2500.0 | –
18 | – | c1ccc2c(c1)OC[C@H](N1CCC3(CCCO3)C1)[C@H]2Nc1ncnc2[nH]c(C3CC3)cc12 (single isomer, unassigned) [EP-0042935] | 211.76 | –
19 | 415 | FC(F)(F)c1cc2c(N[C@H]3c4ccccc4OC[C@@H]3C3(F)CCOCC3)ncnc2[nH]1 [EP-0043236, N-[(3R,4R)-3-(4-Fluorotetrahydropyran-4-Yl)Chroman-4-Yl]-6-(Trifluoromethyl)-7H-Pyrrolo[2,3-D]Pyrimidin-4-Amine] | 59.18 | –
20 | 140 | CO[C@@H]1CCN([C@H]2COc3cc(F)ccc3[C@@H]2Nc2ncnc3[nH]c(C(F)(F)F)cc23)C1 [EP-0043690, N-((3R,4S)-7-fluoro-3-((R)-3-methoxypyrrolidin-1-yl)chroman-4-yl)-6-(trifluoromethyl)-7H-pyrrolo[2,3-d]pyrimidin-4-amine] | 68.6 | –
21 | – | N#C[C@H]1CCN([C@H]2COc3ccccc3[C@@H]2Nc2ncnc3[nH]c(C4CC4)cc23)C1 [EP-0043271, (S)-1-((3R,4S)-4-((6-Cyclopropyl-7H-Pyrrolo[2,3-D]Pyrimidin-4-Yl)Amino)Chroman-3-Yl)Pyrrolidine-3-Carbonitrile] | 74.90 | 65
22 | 150 | COC1CN([C@H]2COc3ccccc3[C@@H]2Nc2nccc3[nH]c(C(F)(F)F)cc23)C1 [EP-0043896, N-((3R,4S)-3-(3-methoxyazetidin-1-yl)chroman-4-yl)-2-(trifluoromethyl)-1H-pyrrolo[3,2-c]pyridin-4-amine] | 126.7 | –
23 | 372 | FC(F)(F)c1cc2c(N[C@H]3c4ccccc4OC[C@@H]3N3CCCC3)ncnc2[nH]1 [EP-0043440, N-((3R,4S)-3-(Pyrrolidin-1-Yl)Chroman-4-Yl)-6-(Trifluoromethyl)-7H-Pyrrolo[2,3-D]Pyrimidin-4-Amine] | 60.76 | –

Row | SMILES | EC50 ([1]; Homo sapiens, HeLa) [nM] | Mito-Safety Index (highest safe dose/EC50) (SKOV3 cells) | EC50 [1] [nM]
24 | c1ccc2c(c1)OC[C@H](N1CCOC3(CC3)C1)[C@H]2Nc1ncnc2[nH]c(C3CC3)cc12 [EP-0042535, N-((3R,4S)-3-(4-Oxa-7-Azaspiro[2.5]Octan-7-Yl)Chroman-4-Yl)-6-Cyclopropyl-7H-Pyrrolo[2,3-D]Pyrimidin-4-Amine] | 244 | 102.55 | –
25 | FC(F)(F)c1cc2c(N[C@H]3c4ccccc4OC[C@@H]3N3CCOC4(CC4)C3)nccc2[nH]1 [EP-0043895, N-((3R,4S)-3-(4-oxa-7-azaspiro[2.5]octan-7-yl)chroman-4-yl)-2-(trifluoromethyl)-1H-pyrrolo[3,2-c]pyridin-4-amine] | 170 | 94.7 | –
26 | Fc1ccc2c(c1)OC[C@H](N1CCC3(CC3)C1)[C@H]2Nc1ncnc2[nH]c(C(F)(F)F)cc12 [EP-0043913, N-((3R,4S)-7-fluoro-3-(5-azaspiro[2.4]heptan-5-yl)chroman-4-yl)-6-(trifluoromethyl)-7H-pyrrolo[2,3-d]pyrimidin-4-amine] | 370 | 67.6 | –
27 | FC(F)(F)c1cc2c(N[C@H]3c4ccccc4OC[C@@H]3N3CCOC4(CC4)C3)ncnc2[nH]1 [EP-0042970, N-((3R,4S)-3-(4-Oxa-7-Azaspiro[2.5]Octan-7-Yl)Chroman-4-Yl)-6-(Trifluoromethyl)-7H-Pyrrolo[2,3-D]Pyrimidin-4-Amine] | 404 | 61.94 | –
28 | Fc1ccc2c(c1)OC[C@H](N1CCOC3(CC3)C1)[C@H]2Nc1ncnc2[nH]c(C(F)(F)F)cc12 [EP-0043834, N-((3R,4S)-7-fluoro-3-(4-oxa-7-azaspiro[2.5]octan-7-yl)chroman-4-yl)-6-(trifluoromethyl)-7H-pyrrolo[2,3-d]pyrimidin-4-amine] | 560 | 40.9 | –
